Experimental findings from patent US9981944B2, “GDF-8 inhibitors” (Rigel Pharmaceuticals, Inc., priority 2015, dated 2018) are described below.

Where a name gives a salt, the structure may show the parent alone.

As usually defined, the IC50 is the midpoint of a concentration-inhibition curve. A lower IC50 goes with higher potency.

Test [1] has as its system TGF-β signaling (p-SMAD-3 Ser423/425). As to the kind of experiment: AlphaScreen SureFire SMAD3 (p-Ser423/425) assay, TGF-β stimulated (TGF-β pSMAD (MPC-11)). Format: cell-based.
The test system of test [2] is GDF8 signaling (p-SMAD-3 Ser423/425). As to the kind of experiment: AlphaScreen SureFire SMAD3 (p-Ser423/425) assay, GDF8 stimulated (GDF pSMAD (MPC11)). The conditions noted are these: Mus musculus, MPC-11, inhibition of GDF8 signaling. Format: cell-based.
[3] abbreviates: Mus musculus, MPC-11, inhibition of TGF-β signaling.

With `Cc1cccc(-c2ncccc2-c2ccn3ncnc3c2)n1` [Compound 5, 7-(6′-Methyl-[2,2′-bipyridin]-3-yl)-[1,2,4]triazolo[1,5-a]pyridine], the IC50 in test [1] (setting [3]) was 1070 nM; in test [2], 280 nM.

As for `Cc1cccc(-c2ncccc2-c2ccc3ncc(C#N)n3c2)n1` [Compound 3, 6-(6′-Methyl-[2,2′-bipyridin]-3-yl)imidazo[1,2-a]pyridine-3-carbonitrile], the results for the IC50 in test [1] (setting [3]) and in test [2] were 1710 nM and 734 nM, respectively.

With `Cc1cccc(-c2ncccc2-c2ccc3ncnc(N)c3c2)n1` [Compound 2A, 6-(6′-methyl-[2,2′-bipyridin]-3-yl)quinazolin-4-aminium 2,2,2-trifluoroacetate], the IC50 in test [1] (inhibition of TGF-β signaling, 2,2,2-trifluoroacetate) came to 251 nM; in test [2], 129 nM.

Regarding `Nc1ncnc2ccc(-c3cccnc3-c3ccccn3)cc12` [Compound 12A, 6-([2,2′-bipyridin]-3-yl)quinazolin-4-aminium formate], the IC50 in test [1] (setting [3]) worked out at 5480 nM; in test [2] it was 1310 nM.

As to `Cc1cccc(-c2ncccc2-c2ccnc3ccccc23)n1` [Compound 1, 4-(6′-Methyl-[2,2′-bipyridin]-3-yl)quinolone], the IC50 in test [1] (setting [3]) is 10600 nM; in test [2] it was 19700 nM.

As for `Cc1cccc(-c2ncccc2-c2ccc3ncnc(N)c3c2)n1` [Compound 2B, 6-(6′-methyl-[2,2′-bipyridin]-3-yl)quinazolin-4-aminium formate], the IC50 in test [1] (inhibition of TGF-β signaling, formate) came out at 112 nM.

Take `NC(=O)c1cnc2ccc(-c3cccnc3-c3ccccn3)cn12` [Compound 9, 6-([2,2′-Bipyridin]-3-yl)imidazo[1,2-a]pyridine-3-carboxamide]: the IC50 was determined as 281 nM in test [1] (setting [3]) and 119 nM in test [2].

On to `Cc1cccc(-c2ncccc2-c2ccc3ncnn3c2)n1` [Compound 4, 6-(6′-Methyl-[2,2′-bipyridin]-3-yl)-[1,2,4]triazolo[1,5-a]pyridine], for which the figures for the IC50 in test [1] (setting [3]) and in test [2] were 501 nM and 215 nM, respectively.

On to `Nc1ncnc2ccc(-c3cccnc3-c3cccc(F)n3)cc12` [Compound 11A, 6-(6′-fluoro-[2,2′-bipyridin]-3-yl)quinazolin-4-aminium 2,2,2-trifluoroacetate], for which the IC50 in test [1] (setting [3]) stood at 1170 nM; in test [2] it was 229 nM.

For `c1ccc(-c2ncccc2-c2ccc3ncnn3c2)nc1` [Compound 8, 6-([2,2′-Bipyridin]-3-yl)-[1,2,4]triazolo[1,5-a]pyridine], the results for the IC50 in test [1] (setting [3]) and in test [2] were 23600 nM and 8060 nM, respectively.

Turning to `Cc1cccc(-c2ncccc2-c2ccc3ncc(C(N)=O)n3c2)n1` [Compound 6, 6-(6′-Methyl-[2,2′-bipyridin]-3-yl)imidazo[1,2-a]pyridine-3-carboxamide], the IC50 in test [1] (setting [3]) turned out to be 53.8 nM; in test [2], 28.6 nM.
